Test results: US20240090503A1, “FUNGICIDAL OXADIAZOLES AND THEIR MIXTURES” (FMC CORPORATION, priority 2020, published 2024)

Columns and labels:
[1] = system: Phakopsora pachyrhizi (the causal agent of Asian soybean rust); experiment: Test A: preventive spray on soybean seedlings, Asian soybean rust, visual disease rating; assay type: in vivo; conditions: soybean seedlings, 100 = 100% disease control, 0 = no control
Outline: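 Compound in acetone/water (50/50) with 250 ppm PEG400 sprayed to run-off on soybean seedlings; inoculated next day with Phakopsora pachyrhizi spores. Held 24 h at 22° C in saturated atmosphere, then 8 days in a 22° C growth chamber before visual rating as % disease control relative to controls.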

[2] = system: Puccinia recondita f. sp. tritici (the causal agent of wheat leaf rust); experiment: Test C: preventive spray on wheat seedlings, wheat leaf rust, visual disease rating; assay type: in vivo; conditions: wheat seedlings, 100 = 100% disease control, 0 = no control
Outline: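 Wheat seedlings sprayed to run-off with compound in acetone/water (50/50) with 250 ppm PEG400, then inoculated with spores the following day. After 24 h saturated humidity at 20° C. and 6 days in growth chamber at 20° C., disease rated visually as % control relative to untreated controls.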

Row | Structure (SMILES) | Test A disease control rating ([1]; 10 ppm test suspension) | Test C disease control rating ([2]; 10 ppm test suspension) | Test A disease control rating ([1]; 50 ppm test suspension) | Test C disease control rating ([2]; 50 ppm test suspension)
1 | CCON=Cc1cnn(Cc2ccc(-c3noc(C(F)(F)F)n3)cc2)c1 [compound 384] | 100% | 100% | – | –
2 | CCCON=Cc1cnn(Cc2ccc(-c3noc(C(F)(F)F)n3)cc2)c1 [compound 385] | 100% | 100% | – | –
3 | C=CCON=Cc1cnn(Cc2ccc(-c3noc(C(F)(F)F)n3)cc2)c1 [compound 386] | 100% | 100% | – | –
4 | C#CCON=Cc1cnn(Cc2ccc(-c3noc(C(F)(F)F)n3)cc2)c1 [compound 387] | 100% | 99% | – | –
5 | CC(C)ON=Cc1cnn(Cc2ccc(-c3noc(C(F)(F)F)n3)cc2)c1 [compound 388] | 100% | 100% | – | –
6 | CC(=O)NN=Cc1cnn(Cc2ccc(-c3noc(C(F)(F)F)n3)cc2)c1 [compound 389] | 100% | 100% | – | –
7 | CS(=O)(=O)CCOC(=O)c1cnn(Cc2ccc(-c3noc(C(F)(F)F)n3)cc2)c1 [compound 390] | 100% | 100% | – | –
8 | CCOC(CC(=O)c1cnn(Cc2ccc(-c3noc(C(F)(F)F)n3)cc2)c1)OCC [compound 391] | 100% | 100% | – | –
9 | O=C(OCC(F)F)c1cnn(Cc2ccc(-c3noc(C(F)(F)F)n3)cc2)c1 [compound 392] | 100% | 100% | – | –
10 | CN(C)C(=O)c1cnn(CCCc2ccc(-c3noc(C(F)(F)F)n3)cc2)c1 [compound 406] | 100% | 93% | – | –
11 | Nc1ncnc2c1cnn2Cc1ccc(-c2noc(C(F)(F)F)n2)cc1 [compound 407] | 100% | 100% | – | –
12 | FC(F)(F)c1nc(-c2ccc(Cn3ncc4ncccc43)cc2)no1 [compound 408] | 100% | 100% | – | –
13 | FC(F)(F)c1nc(-c2ccc(Cn3cc4ncccc4n3)cc2)no1 [compound 409] | 100% | 100% | – | –
14 | CCCCOC(=O)c1cnn(Cc2ccc(-c3noc(C(F)(F)F)n3)cc2)c1 [compound 410] | 100% | 100% | – | –
15 | O=C(OCC1CC1)c1cnn(Cc2ccc(-c3noc(C(F)(F)F)n3)cc2)c1 [compound 411] | 100% | 100% | – | –
16 | O=C(OCc1ccccc1)c1cnn(Cc2ccc(-c3noc(C(F)(F)F)n3)cc2)c1 [compound 412] | 100% | 100% | – | –
17 | FC(F)(F)c1nc(-c2ccc(Cn3ncc4cc(Br)cnc43)cc2)no1 [compound 413] | 100% | 68% | – | –
18 | FC(F)(F)c1nc(-c2ccc(Cn3cc4cc(Br)cnc4n3)cc2)no1 [compound 414] | 100% | 100% | – | –
19 | CNC(=O)c1cnn(CCCc2ccc(-c3noc(C(F)(F)F)n3)cc2)c1 [compound 415] | 100% | 96% | – | –

Row | Structure (SMILES) | Test A disease control rating ([1]; 10 ppm test suspension) | Test C disease control rating ([2]; 10 ppm test suspension) | Test A disease control rating ([1]; 50 ppm test suspension) | Test C disease control rating ([2]; 50 ppm test suspension)
20 | CCCOC(=O)c1cnn(Cc2ccc3cc(-c4noc(C(F)(F)F)n4)ccc3c2)c1 [compound 416] | – | – | 77% | 0%
21 | N#Cc1cccn(Cc2ccc(-c3noc(C(F)(F)F)n3)cc2)c1=O [compound 417] | 100% | 100% | – | –
22 | CCOC(=O)c1cncn(Cc2ccc(-c3noc(C(F)(F)F)n3)cc2)c1=O [compound 418] | 100% | 99% | – | –
23 | CCOC(=O)c1cn(Cc2ccc(-c3noc(C(F)(F)F)n3)cc2)c(=O)cn1 [compound 419] | 96% | 99% | – | –
24 | COC(=O)c1ccc(=O)n(Cc2ccc(-c3noc(C(F)(F)F)n3)cc2)c1 [compound 420] | 100% | 100% | – | –
25 | COc1ccn(Cc2ccc(-c3noc(C(F)(F)F)n3)cc2)c(=O)c1 [compound 421] | 100% | 100% | – | –
26 | COC(=O)c1cccn(Cc2ccc(-c3noc(C(F)(F)F)n3)cc2)c1=O [compound 422] | 90% | 93% | – | –
27 | COC(=O)c1nccn(Cc2ccc(-c3noc(C(F)(F)F)n3)cc2)c1=O [compound 423] | 86% | 80% | – | –
28 | CCOC(=O)c1cnn(Cc2ccc(-c3noc(C(F)(F)F)n3)cn2)c1 [compound 424] | 100% | 96% | – | –
29 | COC(=O)c1cnn(CCCc2ccc(-c3noc(C(F)(F)F)n3)cc2)c1 [compound 427] | – | – | 100% | 67%
30 | CCOC(=O)c1cnn(CCCc2ccc(-c3noc(C(F)(F)F)n3)cc2)c1 [compound 428] | – | – | 100% | 100%
31 | C#CCNC(=O)C1=NOC(Cc2ccc(-c3noc(C(F)(F)F)n3)s2)C1 (centres unmarked) [compound 429] | – | – | 100% | 100%
32 | CCN(CC)C(=O)C1=NOC(Cc2ccc(-c3noc(C(F)(F)F)n3)s2)C1 (centres unmarked) [compound 430] | – | – | 100% | 100%
33 | CCOC(=O)C1(Cc2ccc(-c3noc(C(F)(F)F)n3)cc2)CCNC1=O (centres unmarked) [compound 431] | – | – | 99% | 98%
34 | CCOC(=O)C1(Cc2ccc(-c3noc(C(F)(F)F)n3)cc2)CCCNC1=O (centres unmarked) [compound 432] | – | – | 100% | 92%
35 | FC(F)(F)c1nc(-c2ccc(Cn3cc4cnc(Cl)nc4n3)cc2)no1 [compound 433] | 100% | 99% | – | –
36 | CSCC(=O)COC(=O)c1cnn(Cc2ccc(-c3noc(C(F)(F)F)n3)cc2)c1 [compound 434] | 100% | 98% | – | –
37 | N#Cc1cnn(CCc2ccc(-c3noc(C(F)(F)F)n3)cc2)c1 [compound 435] | 100% | 74% | – | –
